# Laboratory results as given in US20050143927A1, “Method for estimating or predicting the anti-tumor activity of a compound and for estimating or predicting the tumor growth in mammals” (Pharmacia Italia S.p.A., priority 2002, published 2005).
# Tested on: GTL16 (human stomach carcinoma)
# Assay: Tumor growth model for treated subjects, GTL16 inoculated subcutaneously in athymic nude mice (Experiment-A)
# Assay type: in vivo
# Text: The cell line GTL16 (human stomach carcinoma) was inoculated subcutaneously on the back of 44 athymic nude male mice, initially weighing 17.9-28.1 g.
# The dimensions of the tumor can be taken applying different types of measurements broadly classifiable as measurements of linear dimensions, of volume (or mass) and cell number. For tumors that maintain more or less a spherical morphology, as in the case of solid tumors, the measurement of the three principal diameters results the most adequate, as well as the most practiced solution. Nevertheless, in the case of subcutaneous tumors, the tumor can be considered of spherical shape only during the initial phase of growth; in the following phases, the dimension perpendicular to the skin is generally much smaller than the percutaneous dimensions, conferring to the mass a plaque-like shape or an hemi-ellipsoidal shape. In the experiments taken into consideration, only the dimensions of the two percutaneous diameters were directly measured with vernier calipers. The third dimension was not directly measured, because of the limited accessibility (which would have required a greater invasiveness), in the assumption that two measures were anyhow sufficient to guarantee a good approximation of the tumor mass (K. Rygaard and M. Spang-Thomsen, “Quantitation and Gompertzian analysis of tumor growth”. Breast Cancer Research and Treatment, 46: 303-312,1997).
# The volume of a tumor can be indirectly calculated by applying the following empirical formula: [formula] where DMIN and DMAX denote, respectively, the smallest and the largest percutaneous diameter. Such empirical formula hypothesizes that the neoplasia has an ellipsoidal shape (D. A. Cameron, W. M. Gregory, A. Bowman, E. D. C. Anderson, P. Levack, P. Forouhi and R. F. C. Leonard, “Identification of long-term survivors in primary breast cancer by dynamic modeling of tumour response”. British Journal of Cancer, 83(1): 98-103, 2000, Hammond, L. A.; Hilsenbeck, S. G.; Eckhardt, S. G.; Marty, J; Mangold, G.; MacDonald, G. R.; Rowinsky, E. K.; Von Hoff, D. D; Weitman S. Enhanced antitumour activity of 6-hydroxymethylacylfulvene in combination with topotecan or paclitaxel in the MV522 lung carcinoma xenograft model. European Journal of Cancer 2000, 36, 2430-2436) obtained by the rotation of a hemi-ellipsoid (with DMIN and DMAX as axes of the percutaneous plane) around its largest axe. Assuming δ as a constant density equal to δ=10^−3g/mm^3, the empirical expression for the mass of the neoplasia results to be: [formula] The Measurement Error Model
# As it regards the model of tumor growth, the error model above introduced is instead known. For the observed measurements of a generic quantity y (for instance the weight of the tumor), the constant coefficient of variation error model (3.5 and 3.6) asserts that the standard deviation of the error varies linearly with the dimension the measured quantity. With an error model of this kind, the technique of the weighed least squares (Weighed Least Squares, WLS), described in M. E. Dagna, “Identificazione di modelli farmacocinetici di popolazione”; Università degli Studi di Pavia 1999, herein incorporated as far as the WLS technique is concerned, is more adequate.
# [1] = mean of the twelve treated mice (20, 30, 40 mg/kg q4dx3)
# [2] = mouse 0, 20 mg/kg iv-bolus q4dx3
# [3] = mouse 26, 40 mg/kg iv-bolus q4dx3
# [4] = mouse 28, 30 mg/kg iv-bolus q4dx3
# [5] = mouse 31, 20 mg/kg iv-bolus q4dx3
# [6] = mouse 55, 20 mg/kg iv-bolus q4dx3
# [7] = mouse 59, 30 mg/kg iv-bolus q4dx3
# [8] = mouse 64, 30 mg/kg iv-bolus q4dx3
# [9] = mouse 69, 20 mg/kg iv-bolus q4dx3
# [10] = mouse 78, 40 mg/kg iv-bolus q4dx3
# [11] = mouse 80, 40 mg/kg iv-bolus q4dx3
# [12] = mouse 81, 40 mg/kg iv-bolus q4dx3
# [13] = mouse 88, 30 mg/kg iv-bolus q4dx3
# [14] = treated mouse 0, 20 mg/kg iv-bolus q4dx3
# [15] = treated mouse 26, 40 mg/kg iv-bolus q4dx3
# [16] = treated mouse 28, 30 mg/kg iv-bolus q4dx3
# [17] = treated mouse 31, 20 mg/kg iv-bolus q4dx3
# [18] = treated mouse 55, 20 mg/kg iv-bolus q4dx3
# [19] = treated mouse 59, 30 mg/kg iv-bolus q4dx3
# [20] = treated mouse 64, 30 mg/kg iv-bolus q4dx3
# [21] = treated mouse 69, 20 mg/kg iv-bolus q4dx3
# [22] = treated mouse 78, 40 mg/kg iv-bolus q4dx3
# [23] = treated mouse 80, 40 mg/kg iv-bolus q4dx3
# [24] = treated mouse 81, 40 mg/kg iv-bolus q4dx3
# [25] = treated mouse 88, 30 mg/kg iv-bolus q4dx3
compound,measurement,setting,value
"CC(=O)O[C@H]1C(=O)[C@@]2(C)[C@H]([C@H](OC(=O)c3ccccc3)[C@]3(O)C[C@H](OC(=O)[C@H](O)[C@@H](NC(=O)c4ccccc4)c4ccccc4)C(C)=C1C3(C)C)[C@]1(OC(C)=O)CO[C@@H]1C[C@@H]2O [Drug-A, paclitaxel]","K1, mean",[1],0.1879 day⁻¹
same,"K2, mean",[1],0.002921 mL/g/day
same,"λ0, mean",[1],0.2467
same,"λ1, mean",[1],0.1274
same,K1 (index of the tumor cells death rate),[2],0.2057 day⁻¹
same,K2 (index of the potency of the compound),[2],0.01878 mL/g/day
same,K1 (index of the tumor cells death rate),[3],0.1658 day⁻¹
same,K2 (index of the potency of the compound),[3],0.00315 mL/g/day
same,K1 (index of the tumor cells death rate),[4],0.1406 day⁻¹
same,K2 (index of the potency of the compound),[4],0.000759 mL/g/day
same,K1 (index of the tumor cells death rate),[5],0.2683 day⁻¹
same,K2 (index of the potency of the compound),[5],0.003356 mL/g/day
same,K1 (index of the tumor cells death rate),[6],0.2424 day⁻¹
same,K2 (index of the potency of the compound),[6],0.002721 mL/g/day
same,K1 (index of the tumor cells death rate),[7],0.192 day⁻¹
same,K2 (index of the potency of the compound),[7],0.000563 mL/g/day
same,K1 (index of the tumor cells death rate),[8],0.1646 day⁻¹
same,K2 (index of the potency of the compound),[8],0.001085 mL/g/day
same,K1 (index of the tumor cells death rate),[9],0.1515 day⁻¹
same,K2 (index of the potency of the compound),[9],0.001361 mL/g/day
same,K1 (index of the tumor cells death rate),[10],0.2056 day⁻¹
same,K2 (index of the potency of the compound),[10],0.001507 mL/g/day
same,K1 (index of the tumor cells death rate),[11],0.209 day⁻¹
same,K2 (index of the potency of the compound),[11],0.000178 mL/g/day
same,K1 (index of the tumor cells death rate),[12],0.2206 day⁻¹
same,K2 (index of the potency of the compound),[12],0.000314 mL/g/day
same,K1 (index of the tumor cells death rate),[13],0.08819 day⁻¹
same,K2 (index of the potency of the compound),[13],0.001276 mL/g/day
same,"LAMBDA0 (production rate of tumor cells, exponential phase)",[14],0.2601
same,"LAMBDA1 (tumor cells mass produced in the time unit, linear phase)",[14],0.1563
same,"LAMBDA0 (production rate of tumor cells, exponential phase)",[15],0.2087
same,"LAMBDA1 (tumor cells mass produced in the time unit, linear phase)",[15],0.1678
same,"LAMBDA0 (production rate of tumor cells, exponential phase)",[16],0.2396
same,"LAMBDA1 (tumor cells mass produced in the time unit, linear phase)",[16],0.16
same,"LAMBDA0 (production rate of tumor cells, exponential phase)",[17],0.2726
same,"LAMBDA1 (tumor cells mass produced in the time unit, linear phase)",[17],0.08095
same,"LAMBDA0 (production rate of tumor cells, exponential phase)",[18],0.2377
same,"LAMBDA1 (tumor cells mass produced in the time unit, linear phase)",[18],0.07223
same,"LAMBDA0 (production rate of tumor cells, exponential phase)",[19],0.2458
same,"LAMBDA1 (tumor cells mass produced in the time unit, linear phase)",[19],0.07275
same,"λ0 (production rate of tumor cells, exponential phase)",[20],0.2565
same,"λ1 (tumor cells mass produced in the time unit, linear phase)",[20],0.18
same,"λ0 (production rate of tumor cells, exponential phase)",[21],0.2464
same,"λ1 (tumor cells mass produced in the time unit, linear phase)",[21],0.1782
same,"λ0 (production rate of tumor cells, exponential phase)",[22],0.2438
same,"λ1 (tumor cells mass produced in the time unit, linear phase)",[22],0.1276
same,"λ0 (production rate of tumor cells, exponential phase)",[23],0.234
same,"λ1 (tumor cells mass produced in the time unit, linear phase)",[23],0.05985
same,"λ0 (production rate of tumor cells, exponential phase)",[24],0.2723
same,"λ1 (tumor cells mass produced in the time unit, linear phase)",[24],0.0685
same,"λ0 (production rate of tumor cells, exponential phase)",[25],0.2431
same,"λ1 (tumor cells mass produced in the time unit, linear phase)",[25],0.2049
